Target: recombinant human baculovirus-expressed cMET (Homo sapiens (Human), UniProt P08581)
Experiment: C-MET Kinase Assay (HTRF KinEASE)
Type: biochemical
Details: average of two or more determinations; read-out: c-MET IC50
Description: The cMET kinase assay was performed in 384-well Fluotrac™ 200 HiBase microplates using the HTRF KinEASE™ assay described above for AXL except that the assay volume was reduced to half. Enzyme concentration was 8 ng/mL of recombinant human baculovirus-expressed cMET while the substrate concentrations were 0.1 μM and 0.02 μM for the biotinylated peptide and ATP, respectively. Instead of the Multidrop Combi, the BioRAPTR® FRD microfluidic workstation (Beckman Coulter, Brea, Calif.) was utilized for reagent additions.
Inhibition curves for compounds were generated by plotting percent control activity versus log 10 of the concentration of compound. IC50 values were calculated by nonlinear regression using the sigmoidal dose-response (variable slope) equation in GraphPad Prism as follows: y=bottom+(top−bottom)/(1+10(log IC50−x)*Hill Slope) where y is the % kinase activity at a given concentration of compound, x is the logarithm of the concentration of compound, bottom is the % of control kinase activity at the highest compound concentration tested, and top is the % of control kinase activity at the lowest compound concentration examined. The values for bottom and top were fixed at 0 and 100, respectively.

Structure (SMILES)	IC50
COc1cc2nccc(Oc3ccc(NC(=O)c4cn(CCCc5ccccc5)c(=O)n(-c5ccc(F)cc5)c4=O)cc3F)c2cc1OC [Example 81, 3-(4-Fluoro-phenyl)-2,4-dioxo-1-(3-phenyl-propyl)-1,2,3,4-tetrahydro-pyrimidine-5-carboxylic acid [4-(6,7-dimethoxy-quinolin-4-yloxy)-3-fluoro-phenyl]-amide]	10 to 100 nM
COc1cc2nccc(Oc3ccc(NC(=O)c4cn(CC(=O)OC(C)(C)C)c(=O)n(-c5ccc(F)cc5)c4=O)cc3F)c2cc1OC [Example 70, [5-[4-(6,7-Dimethoxy-quinolin-4-yloxy)-3-fluoro-phenylcarbamoyl]-3-(4-fluoro-phenyl)-2,4-dioxo-3,4-dihydro-2H-pyrimidin-1-yl]-acetic acid tert-butyl ester]	10 to 100 nM
CCn1cc(C(=O)Nc2ccc(Oc3ccnc4cc(OCc5ccccc5)c(OC)cc34)c(F)c2)c(=O)n(-c2ccc(F)cc2)c1=O [Example 40, 1-Ethyl-3-(4-fluorophenyl)-2,4-dioxo-1,2,3,4-tetrahydropyrimidine-5-carboxylic acid [4-(7-benzyloxy-6-methoxyquinolin-4-yloxy)-3-fluorophenyl]-amide]	10 to 100 nM
CCOc1cc2nccc(Oc3ccc(NC(=O)c4nn(CC)c(=O)n(-c5ccc(F)cc5)c4=O)cc3F)c2cc1OCC [Example 109, 2-Ethyl-4-(4-fluorophenyl)-3,5-dioxo-2,3,4,5-tetrahydro[1,2,4]triazine-6-carboxylic acid [4-(6,7-diethoxy-quinolin-4-yloxy)-3-fluoro-phenyl]-amide]	10 to 100 nM
CCn1cc(C(=O)Nc2ccc(Oc3ccnc4cc(OCCN5CCOCC5)c(OC)cc34)c(F)c2)c(=O)n(-c2ccc(F)cc2)c1=O [Example 45, 1-Ethyl-3-(4-fluorophenyl)-2,4-dioxo-1,2,3,4-tetrahydropyrimidine-5-carboxylic acid {3-fluoro-4-[6-methoxy-7-(2-morpholin-4-yl-ethoxy)-quinolin-4-yloxy]phenyl}-amide]	10 to 100 nM
COc1cc2nccc(Oc3c(F)cc(NC(=O)c4c[nH]c(=O)n(-c5ccc(F)cc5)c4=O)cc3F)c2cc1OC [Example 89, 3-(4-Fluoro-phenyl)-2,4-dioxo-1,2,3,4-tetrahydropyrimidine-5-carboxylic acid [4-(6,7-dimethoxy-quinolin-4-yloxy)-3,5-difluoro-phenyl]-amide]	101 to 1000 nM
CCn1cc(C(=O)Nc2ccc(Oc3ccnc4cc(OCCCN5CCOCC5)c(OC)cc34)c(F)c2)c(=O)n(-c2ccc(F)cc2)c1=O [Example 43, 1-Ethyl-3-(4-fluorophenyl)-2,4-dioxo-1,2,3,4-tetrahydropyrimidine-5-carboxylic acid {3-fluoro-4-[6-methoxy-7-(3-morpholin-4-yl-propoxy)quinolin-4-yloxy]phenyl}-amide]	10 to 100 nM
COc1cc2nccc(Oc3ccc(NC(=O)c4cn(CCC5CCCCC5)c(=O)n(-c5ccc(F)cc5)c4=O)cc3F)c2cc1OC [Example 80, 1-(2-Cyclohexyl-ethyl)-3-(4-fluoro-phenyl)-2,4-dioxo-1,2,3,4-tetrahydro-pyrimidine-5-carboxylic acid [4-(6,7-dimethoxy-quinolin-4-yloxy)-3-fluoro-phenyl]-amide]	101 to 1000 nM
CCn1cc(C(=O)Nc2ccc(Oc3ccnc4cc(OC)c(OC)cc34)c(C3CC3)c2)c(=O)n(-c2ccc(F)cc2)c1=O [Example 59, 1-Ethyl-3-(4-fluoro-phenyl)-2,4-dioxo-1,2,3,4-tetrahydropyrimidine-5-carboxylic acid [3-cyclopropyl-4-(6,7-dimethoxy-quinolin-4-yloxy)-phenyl]-amide]	10 to 100 nM
COc1cc2nccc(Oc3ccc(NC(=O)c4nn(C)c(=O)[nH]c4=O)cc3F)c2cc1OC [Example 114, 2-Methyl-3,5-dioxo-2,3,4,5-tetrahydro-[1,2,4]triazine-6-carboxylic acid [4-(6,7-dimethoxy-quinolin-4-yloxy)-3-fluoro-phenyl]-amide]	10 to 100 nM
CCn1cc(C(=O)Nc2ccc(Oc3ccnc4cc(O)c(OC)cc34)c(F)c2)c(=O)n(-c2ccc(F)cc2)c1=O [Example 42, 1-Ethyl-3-(4-fluorophenyl)-2,4-dioxo-1,2,3,4-tetrahydropyrimidine-5-carboxylic acid [3-fluoro-4-(7-hydroxy-6-methoxyquinolin-4-yloxy)phenyl]-amide]	10 to 100 nM
CCOc1cc2nccc(Oc3ccc(NC(=O)c4cn(C(C)C)c(=O)n(-c5ccc(F)cc5)c4=O)cc3F)c2cc1OCC [Example 37, 3-(4-Fluorophenyl)-1-isopropyl-2,4-dioxo-1,2,3,4-tetrahydropyrimidine-5-carboxylic acid [4-(6,7-diethoxyquinolin-4-yloxy)-3-fluoro-phenyl]-amide]	101 to 1000 nM
COc1cc2nccc(Oc3ccc(NC(=O)c4cn(C(C)C)c(=O)n(-c5ccc(F)cc5)c4=O)cc3C3CC3)c2cc1OC [Example 60, 3-(4-Fluoro-phenyl)-1-isopropyl-2,4-dioxo-1,2,3,4-tetrahydro-pyrimidine-5-carboxylic acid [3-cyclopropyl-4-(6,7-dimethoxy-quinolin-4-yloxy)-phenyl]-amide]	101 to 1000 nM
COc1cc2nccc(Oc3ccc(NC(=O)c4cn(CC5CC5)c(=O)n(CC5CC5)c4=O)cc3F)c2cc1OC [Example 95, 1,3-Bis-cyclopropylmethyl-2,4-dioxo-1,2,3,4-tetrahydro-pyrimidine-5-carboxylic acid [4-(6,7-dimethoxy-quinolin-4-yloxy)-3-fluoro-phenyl]-amide]	10 to 100 nM

Further lines, results first:

IC50	Structure (SMILES)
10 to 100 nM	COc1cc2nccc(Oc3ccc(NC(=O)c4nn(C)c(=O)n(Cc5cc(C)on5)c4=O)cc3F)c2cc1OC [Example 116, 2-Methyl-4-(5-methyl-isoxazol-3-ylmethyl)-3,5-dioxo-2,3,4,5-tetrahydro-[1,2,4]triazine-6-carboxylic acid [4-(6,7-dimethoxy-quinolin-4-yloxy)-3-fluoro-phenyl]-amide]
10 to 100 nM	COc1cc2nccc(Oc3ccc(NC(=O)c4cn(C(C)C)c(=O)n(-c5ccc(F)cc5)c4=O)cc3C(C)C)c2cc1OC [Example 156, 3-(4-Fluoro-phenyl)-1-isopropyl-2,4-dioxo-1,2,3,4-tetrahydro-pyrimidine-5-carboxylic acid [4-(6,7-dimethoxy-quinolin-4-yloxy)-3-isopropyl-phenyl]-amide]
10 to 100 nM	CCn1nc(C(=O)Nc2ccc(Oc3ccnc4cc(OC)c(OC)cc34)cn2)c(=O)n(-c2ccc(F)cc2)c1=O [Example 164, 2-Ethyl-4-(4-fluoro-phenyl)-3,5-dioxo-2,3,4,5-tetrahydro-1,2,4-triazine-6-carboxylic acid [5-(6,7-dimethoxy-quinolin-4-yloxy)-pyridin-2-yl]-amide]
101 to 1000 nM	COc1cc2nccc(Oc3ccc(NC(=O)c4cn(C(C)C)c(=O)n(-c5ccc(F)cc5)c4=O)c(N(C)C)c3)c2cc1OC [Example 154, 3-(4-Fluoro-phenyl)-1-isopropyl-2,4-dioxo-1,2,3,4-tetrahydro-pyrimidine-5-carboxylic acid [4-(6,7-dimethoxy-quinolin-4-yloxy)-2-dimethylamino-phenyl]-amide]
10 to 100 nM	CCn1cc(C(=O)Nc2ccc(Oc3ccnc4cc(OC)c(OC)cc34)c(Cl)c2)c(=O)n(-c2ccc(F)cc2)c1=O [Example 152]
10 to 100 nM	CCn1cc(C(=O)Nc2cc(C)c(Oc3ccnc4cc(OC)c(OC)cc34)c(C)c2)c(=O)n(-c2ccc(F)cc2)c1=O [Example 161, 1-Ethyl-3-(4-fluoro-phenyl)-2,4-dioxo-1,2,3,4-tetrahydro-pyrimidine-5-carboxylic acid [4-(6,7-dimethoxy-quinolin-4-yloxy)-3,5-dimethyl-phenyl]-amide]
101 to 1000 nM	COc1cc(Oc2ccnc3cc(OC)c(OC)cc23)ccc1NC(=O)c1nn(C(C)C)c(=O)n(-c2ccc(F)cc2)c1=O [Example 166, 4-(4-Fluoro-phenyl)-2-isopropyl-3,5-dioxo-2,3,4,5-tetrahydro-1,2,4-triazine-6-carboxylic acid [4-(6,7-dimethoxy-quinolin-4-yloxy)-2-methoxy-phenyl]-amide]
101 to 1000 nM	COc1cc2nccc(Oc3ccc(NC(=O)c4cn(C(C)C)c(=O)n(-c5ccc(F)cc5)c4=O)c(C)c3C)c2cc1OC [Example 158, 3-(4-Fluoro-phenyl)-1-isopropyl-2,4-dioxo-1,2,3,4-tetrahydro-pyrimidine-5-carboxylic acid [4-(6,7-dimethoxy-quinolin-4-yloxy)-2,3-dimethyl-phenyl]-amide]
101 to 1000 nM	CCC#CCn1c(=O)c(C(=O)Nc2ccc(Oc3ccnc4cc(OC)c(OC)cc34)c(F)c2)nn(C)c1=O [Example 117, 2-Methyl-3,5-dioxo-4-pent-2-ynyl-2,3,4,5-tetrahydro-[1,2,4]triazine-6-carboxylic acid [4-(6,7-dimethoxy-uinolin-4-yloxy)-3-fluoro-phenyl]-amide]
10 to 100 nM	CCn1nc(C(=O)Nc2ccc(Oc3ccnc4cc(OC)c(OC)cc34)cc2OC)c(=O)n(-c2ccc(F)cc2)c1=O [Example 170, 2-Ethyl-4-(4-fluoro-phenyl)-3,5-dioxo-2,3,4,5-tetrahydro-1,2,4-triazine-6-carboxylic acid [4-(6,7-dimethoxy-quinolin-4-yloxy)-2-methoxy-phenyl]-amide]
10 to 100 nM	COc1cc2nccc(Oc3ccc(NC(=O)c4cn(C(C)C)c(=O)n(-c5ccc(F)cc5)c4=O)cc3C)c2cc1OC [Example 163, 3-(4-Fluoro-phenyl)-1-isopropyl-2,4-dioxo-1,2,3,4-tetrahydro-pyrimidine-5-carboxylic acid [4-(6,7-dimethoxy-quinolin-4-yloxy)-3-methyl-phenyl]-amide]
